Results taken from PMC11266212, “Effect of Clarithromycin, a Strong CYP3A and P-glycoprotein Inhibitor, on the Pharmacokinetics of Edoxaban in Healthy Volunteers and the Evaluation of the Drug Interaction with Other Oral Factor Xa Inhibitors by a Microdose Cocktail Approach” (Cardiovascular Drugs and Therapy, 2023).
Where two headings read alike, the source gives them in different places.

Columns and labels:
CYP3A = CYP3A activity by oral midazolam microdose (AUC2-4, limited sampling); type: in vivo, human (healthy volunteers); conditions: human, plasma, 30 ug, oral microdose 30 μg
Method: (§1) The study was an open-label, two-period, one-sequence DDI trial in healthy volunteers to assess the impact of clarithromycin on the pharmacokinetics of 60 mg edoxaban, given as a tablet, and the effect of clarithromycin on apixaban (25 μg), edoxaban (50 μg), and rivaroxaban (25 μg) administered as an oral microdose cocktail. Concurrently, the effect of clarithromycin on CYP3A activity was quantified by means of an oral midazolam microdose (30 μg) (Fig. 1).
CYP3A4 activity was quantified using a microdose of midazolam administered as an oral solution, which was administered directly before administering the FXaI [19, 20]. […] Single-dose pharmacokinetics of the FXaI were assessed at baseline and on day 8 (microdosed FXaI cocktail) and day 9 (edoxaban 60 mg) of clarithromycin treatment.
Venous plasma samples for pharmacokinetic FXaI analyses were collected before and 0.25, 0.5, 0.75, 1, 1.5, 2, 2.5, 3, 3.5, 4, 5, 6, 8, 10, 12, 24 (last sampling after microdoses), and 48 h (last sampling for edoxaban 60 mg) after drug administration. Midazolam pharmacokinetics were assessed using a limited sampling strategy with sampling at 2, 2.5, 3, and 4 h post dose. […] Coagulation effects (international normalized ratio (INR) and activated partial thromboplastin time (aPTT)) were assessed at expected FXaI peak plasma concentrations (3 h post dose) in the accredited central laboratory of the hospital. […]

[1] = cited from earlier work
clinical = conditions: for GMR of dose-normalized AUC0-∞, microdose vs therapeutic dose: edoxaban 50 μg vs 60 mg; for AUC: AUC0-∝
Method: as §1
(§2) CYP3A4 activity was quantified using a microdose of midazolam administered as an oral solution, which was administered directly before administering the FXaI [19, 20]. Clarithromycin was dosed to inhibition steady-state (7-day treatment prior to evaluation of any perpetrator effects and treatment continued until last blood sampling) and administered at a dose of 500 mg b.i.d. to ensure reliable inhibition of hepatic CYP3A4 (mechanism-based inhibition), while maximum CYP3A4 inhibition in the gut wall was expected to occur earlier. Single-dose pharmacokinetics of the FXaI were assessed at baseline and on day 8 (microdosed FXaI cocktail) and day 9 (edoxaban 60 mg) of clarithromycin treatment.
(§3) Venous plasma samples for pharmacokinetic FXaI analyses were collected before and 0.25, 0.5, 0.75, 1, 1.5, 2, 2.5, 3, 3.5, 4, 5, 6, 8, 10, 12, 24 (last sampling after microdoses), and 48 h (last sampling for edoxaban 60 mg) after drug administration. Midazolam pharmacokinetics were assessed using a limited sampling strategy with sampling at 2, 2.5, 3, and 4 h post dose. All samples were processed within 20 min, and plasma was stored at ≤ – 20 °C until analysis. Coagulation effects (international normalized ratio (INR) and activated partial thromboplastin time (aPTT)) were assessed at expected FXaI peak plasma concentrations (3 h post dose) in the accredited central laboratory of the hospital.
(§4) Apixaban, edoxaban, midazolam, and rivaroxaban plasma concentrations were quantified using validated highly sensitive ultra-performance liquid chromatography–tandem mass spectrometry (UPLC-MS/MS) methods with accuracy and precision values of less than or equal to ± 15 % [22, 23]. The corresponding lower limits of quantification were 1 pg/ml for microdosed midazolam, 2.5 pg/ml for all microdosed FXaI, and 1 ng/ml for regular doses of edoxaban.
(§5) Non-compartmental analyses of the FXaI and midazolam pharmacokinetics were performed using Phoenix WinNonlin 8.3 (Certara, Inc., Princeton, NJ, USA). Linear modelling of AUC ratios was done using the R software environment in version 4.0.4 (R Foundation for Statistical Computing, Vienna, Austria). Maximum plasma concentration (Cmax) and the time to reach Cmax (Tmax) were directly obtained from the pharmacokinetic data. The area under the concentration-time curve from 0 to infinity (AUC0-∞) was determined using the log-linear trapezoidal rule and by adding the extrapolated part until infinity. Half-life (t1/2) is calculated as ln(2)/λz , where the elimination rate constant λz was estimated using log-linear regression of the elimination phase. The apparent oral clearance (Cl/F) was calculated as dose/AUC0--∞ . CYP3A4 activity was determined using a limited sampling strategy using the midazolam AUC2-4 as described earlier. […] Exposure changes are described by evaluating the geometric mean ratio (paired t-test on log-transformed values) of AUC0-∞ and Cmax at baseline and under the influence of steady-state clarithromycin (90 % CI). The AUC2-4 of midazolam was evaluated at multiple time points using a repeated-measures analysis of variance after logarithmic transformation.

CYP = conditions: cited from earlier work
[2] = cited from earlier work; remark: listed apart in the source
[3] = Safety: adverse events in the trial; type: in vivo, human (healthy volunteers); conditions: while taking clarithromycin 500 mg b.i.d.; 12 participants
[4] = parameters: method as in PMID 32511684; conditions: during clarithromycin compared to azithromycin, patients mainly anticoagulated with FXaI; cited from earlier work
P-gp = test system: P-gp; parameters: method as in PMID 12848773, PMID 18987624; conditions: digoxin given intravenously and orally; cited from earlier work
[5] = test system: coagulation markers (aPTT, INR); experiment: Coagulation effects (aPTT, INR) 3 h post dose; type: in vivo, human (healthy volunteers); conditions: for INR, mean / aPTT, mean: 180 min after administration
Method: as §3

[6] = Pharmacokinetics of a single 60 mg edoxaban dose before and during clarithromycin; conditions: for Tmax / Vd: geometric mean; for Vd: Vz
Method: as §1, §2, §3, §4, §5

[7] = human, in vivo, po, geometric mean
[8] = regular rivaroxaban dose with clarithromycin, ref 16 (Mueck et al. 2013)
[9] = oral microdose cocktail, at clarithromycin steady-state
[10] = oral microdose cocktail, baseline
[11] = regular apixaban dose with clarithromycin, ref 24 (Garonzik et al. 2019)
[12] = edoxaban 60 mg with clarithromycin
[13] = edoxaban 60 mg, clarithromycin steady state vs baseline
[14] = human, in vivo, 60 mg, edoxaban 60 mg, at clarithromycin steady-state
[15] = human, in vivo, 60 mg, edoxaban 60 mg, baseline
[16] = oral microdose cocktail, clarithromycin steady state vs baseline

`Cc1ncc2n1-c1ccc(Cl)cc1C(c1ccccc1F)=NC2` [Midazolam, midazolam] gave an AUC (CYP3A; at clarithromycin steady-state) of 0.672 ng·h/mL and an AUC (CYP3A; baseline) of 0.107 ng·h/mL.

For `O=C(NC[C@H]1CN(c2ccc(N3CCOCC3=O)cc2)C(=O)O1)c1ccc(Cl)s1` [Rivaroxaban, rivaroxaban], the “exposure increase caused by verapamil or diltiazem” value [1] is given as “approximately 40%”, the “exposure change with ketoconazole” value ([1]; therapeutic dose of rivaroxaban) is given as 158% and the “Cl / F, geometric mean” value (clinical; human, in vivo, po) is given as 9.0 L/h. For the same compound, the Tmax (clinical; human, in vivo, po) was 0.917 h, the “Vz, geometric mean” value (clinical; human, in vivo, po) was 85 L and the t1/2, geometric mean (clinical; human, in vivo, po) was 6.3 h. The Cmax (clinical; [7]) was 0.65 ng/mL, the “CYP contribution to overall clearance” value (CYP) was 32% and the “AUC0-∝ geometric mean ratio” value [2, 8] was 1.54. For the same compound, the “Cmax geometric mean ratio” value [2, 8] was 1.40, the “increase of concentrations (exposure) by clarithromycin” value ([2]; rivaroxaban) was 50–100% and the “magnitude of drug interaction (exposure increase) with clarithromycin” value ([2]; therapeutic doses of rivaroxaban) was 54%.

For `CC[C@H]1OC(=O)[C@H](C)[C@@H](O[C@H]2C[C@@](C)(OC)[C@@H](O)[C@H](C)O2)[C@H](C)[C@@H](O[C@@H]2O[C@H](C)C[C@H](N(C)C)[C@H]2O)[C@](C)(OC)C[C@@H](C)C(=O)[C@H](C)[C@@H](O)[C@]1(C)O` [clarithromycin], the “adverse event dysgeusia, number of participants” value [3] is given as 9 and the “increase of the risk of hospital admission due to major bleeding events” value [4] is given as 71%.

In the case of `COc1ccc(-n2nc(C(N)=O)c3c2C(=O)N(c2ccc(N4CCCCC4=O)cc2)CC3)cc1` [Apixaban, apixaban], the “exposure increase caused by verapamil or diltiazem” value [1] is listed as “approximately 40%”, the “exposure change with ketoconazole” value ([1]; therapeutic dose of apixaban) is listed as 99% and the “Cl / F, geometric mean” value (clinical; human, in vivo, po) is listed as 4.9 L/h. The “Vz, geometric mean” value (clinical; human, in vivo, po) was 52 L, the t1/2, geometric mean (clinical; human, in vivo, po) was 7.1 h and the Cmax (clinical; [7]) was 0.653 ng/mL. The “Tmax, geometric mean” value (clinical; [9]) was 2.23 h, the “Tmax, geometric mean” value (clinical; [10]) was 1.9 h and the “CYP contribution to overall clearance” value (CYP) was 21%. The “increase of concentrations (exposure) by clarithromycin” value ([2]; apixaban) was 60%, the “AUC0-∝ geometric mean ratio” value [2, 11] was 1.60 and the “Cmax geometric mean ratio” value [2, 11] was 1.30.

In the case of `C[C@H]1O[C@@H](O[C@H]2[C@@H](O)C[C@H](O[C@H]3[C@@H](O)C[C@H](O[C@H]4CC[C@@]5(C)[C@H](CC[C@@H]6[C@@H]5C[C@@H](O)[C@]5(C)[C@@H](C7=CC(=O)OC7)CC[C@]65O)C4)O[C@@H]3C)O[C@@H]2C)C[C@H](O)[C@@H]1O` [digoxin], the “reduction of renal tubular secretion by oral clarithromycin” value (P-gp) is listed as 15%.

In the case of `CN1CCc2nc(C(=O)N[C@@H]3C[C@@H](C(=O)N(C)C)CC[C@@H]3NC(=O)C(=O)Nc3ccc(Cl)cn3)sc2C1` [Edoxaban, edoxaban], the “INR, change during clarithromycin, GMR” value ([5]; edoxaban 60 mg) is reported as 1.39, the “INR, mean” value ([5]; edoxaban 60 mg alone) is reported as 1.23 and the “aPTT, mean” value ([5]; edoxaban 60 mg alone) is reported as 33.4. The “INR, mean” value [5, 12] was 1.43, the “aPTT, mean” value [5, 12] was 40.2 and the “increase of edoxaban exposure by clarithromycin” value ([6]; edoxaban 60 mg) was 53%. The “Cl / F, geometric mean” value ([6]; edoxaban 60 mg, at clarithromycin steady-state) was 34 L/h, the “Cmax, geometric mean” value ([6]; edoxaban 60 mg, at steady-state clarithromycin) was 258 ng/mL and the “Cl / F, geometric mean” value ([6]; edoxaban 60 mg, baseline) was 51 L/h. For the same compound, the “AUC0-∝ geometric mean ratio” value [6, 13] was 1.53, the “Cmax geometric mean ratio” value [6, 13] was 1.27 and the Cmax ([6]; human, in vivo, 60 mg) was 203 ng/mL. For the same compound, the Tmax [6, 14] was 1.67 h, the Tmax [6, 15] was 1.27 h and the Vd [6, 14] was 361 L. For the same compound, the Vd [6, 15] was 594 L, the AUC ([6]; human, in vivo, po, 60 mg) was 1170 ng·h/mL and the “effect of selective inhibition of CYP3A (by voriconazole) on pharmacokinetics” value [1] was “does not affect its pharmacokinetics”. For the same compound, the “exposure change with ketoconazole” value ([1]; therapeutic dose of edoxaban) was 87%, the “GMR of dose-normalized AUC0-∞, microdose vs therapeutic dose” value (clinical; at baseline) was 1.08 and the “GMR of dose-normalized AUC0-∞, microdose vs therapeutic dose” value (clinical; at steady-state of clarithromycin) was 1.43. It also gave an AUC (clinical; human, in vivo, po, geometric mean, oral microdose cocktail (25 μg apixaban, 50 μg edoxaban, 25 μg rivaroxaban), baseline) of 1.05 ng·h/mL, an AUC (clinical; human, in vivo, po, geometric mean, oral microdose cocktail, at steady-state clarithromycin (day 8)) of 2.13 ng·h/mL and a Cmax (clinical; human, in vivo, po, geometric mean, oral microdose cocktail, at steady-state clarithromycin) of 0.341 ng/mL. It also gave a Cmax (clinical; human, in vivo, po, geometric mean, oral microdose cocktail, baseline) of 0.153 ng/mL, a Tmax (clinical; human, in vivo, po, Tmax, geometric mean, oral microdose cocktail, at clarithromycin steady-state) of 1.72 h and a Tmax (clinical; human, in vivo, po, Tmax, geometric mean, oral microdose cocktail, baseline) of 1.17 h. The “Cl / F, geometric mean” value (clinical; [9]) was 23 L/h, the “Vz, geometric mean” value (clinical; [9]) was 217 L and the “Cl / F, geometric mean” value (clinical; [10]) was 48 L/h. For the same compound, the “Vz, geometric mean” value (clinical; [10]) was 399 L, the “AUC0-∝ geometric mean ratio” value (clinical; [16]) was 2.03 and the “Cmax geometric mean ratio” value (clinical; [16]) was 2.22. For the same compound, the “contribution of CYP3A to the overall metabolic clearance” value (CYP) was 1%.
